In patent US10300059B2, “Pharmaceutical composition and therapeutic combination comprising a cholesteryl ester transfer protein inhibitor and HMG CoA reductase inhibitors” (DEZIMA PHARMA B.V., priority 2014, dated 2019):
Read-outs that look alike come from different tables or passages of the source.

Columns and labels:
[1] = system: fasted healthy subjects; settings: 200 mg once daily; cited from earlier work
[2] = system: patients; settings: 150 mg once daily; cited from earlier work
[3] = in humans; accumulates in fat tissue; cited from earlier work
[4] = data from phase 2 studies; cited from earlier work
[5] = system: patients with mild dyslipidemia; test: Double-blind, placebo-controlled phase 2 trial: fasted lipid profile after 12 weeks; type: in vivo, human
Description: In a double-blind, placebo controlled clinical study the effects of 12 weeks of administration of Compound A alone and in combination with statins in patients with mild dyslipidemia was examined. […] Patients were recruited at 20 sites in the Netherlands and Denmark. The trial was approved by Independent Ethics Committees, and each patient provided written informed consent. The trial was conducted in accordance with the principles of the Declaration of Helsinki and Good Clinical Practice Guidelines and the protocol was registered on ClinicalTrials.gov (NCT01970215). The trial consisted of a screening visit, followed by a run-in phase of 4 weeks (or 6 weeks for patients that required a washout of existing lipid-lowering therapy). […] All treatments were to be taken once daily with food for 12 weeks. […] Follow-up visits were conducted 2 and 8 weeks after the end of treatment. Safety was assessed throughout the trial by monitoring adverse events and concomitant medication use, 12-lead electrocardiograms (ECGs), vital signs, laboratory safety assessments and physical examinations. Additional assessments included salivary cortisol, plasma aldosterone, high-sensitivity C-reactive protein (hsCRP) and endothelin 1. Efficacy assessments included fasted lipid profiles including total cholesterol (TC), HDL-C, LDL-C, triglycerides, apolipoproteins AI, B and E (ApoAI, Apo B and ApoE), lipoprotein a (Lp[a]) and derived parameters. […] Blood samples were collected for pharmacokinetic analysis of Compound A. Total cholesterol and triglycerides were measured by homogenous enzymatic assay using a Modular analyser (cholesterol oxidase peroxidase-peroxidase aminophenazone phenol [CHOP-PAP]) method and a glycerol phosphate oxidase [GPO-PAP] method, respectively. […] Lp(a) was measured by immunoturbidimetry using reagents and standards from Wako Chemicals (Germany). LDL particle size was determined by gradient gel electrophoresis. HDL fraction was separated by a combined ultracentrifugation-precipitation method ((β-quantification). HDL-2 and HDL-3 fractions were then separated by further ultracentrifugation. […] The measurements were performed on an Olympus AU600 automatic analyzer and were calibrated using secondary standards from Roche Diagnostics (total-cholesterol, triglycerides) and Diasys Diagnostics (free cholesterol, phospholipids), respectively. Esterified cholesterol was calculated as the difference between total-cholesterol and free cholesterol. […] The primary and secondary efficacy analyses were performed using an analysis of covariance (ANCOVA) model with treatment and use of statin therapy at randomisation as factors and the baseline value for the respective efficacy variable as a covariate. Least-squares means, standard errors and 2-tailed 95% confidence intervals for each treatment group and for pairwise comparisons between Compound A doses and placebo, between Compound A plus atorvastatin and atorvastatin alone, and between Compound A plus rosuvastatin and rosuvastatin alone were provided. As there were two co-primary efficacy variables, a closed testing procedure was used in order to control the family-wise error. No interim analyses were planned or conducted.

[6] = system: patients with mild dyslipidemia; test: Serum-driven cholesterol efflux, baseline versus week 12 of the phase 2 trial; type: in vivo, human; settings: p<0.0001
Excerpt: Bars are means and error bars are standard deviations. The baseline data only includes patients who had both baseline and week 12 data.
In this Figure baseline and week 12 data for serum-driven cholesterol efflux is shown. Bars are means and error bars are standard deviations. The baseline data only includes patients who had both baseline and week 12 data.

[7] = in vivo; cited from earlier work
[8] = system: patients; settings: 500 mg once daily monotherapy in patients; cited from earlier work
[9] = system: endothelin-1; settings: animal studies; cited from earlier work
[10] = cited from earlier work
[11] = atorvastatin (20 mg) once daily
[12] = 2.5 mg of Compound A once daily
[13] = rosuvastatin (10 mg) once daily

COc1cc(F)c(C(C)C)cc1-c1ccc(C(F)(F)F)cc1CN1C(=O)O[C@H](c2cc(C(F)(F)F)cc(C(F)(F)F)c2)[C@@H]1C [Anacetrapib, anacetrapib]
decrease of LDL-C [1]: 36% | increase of HDL C [1]: 97% | decrease of LDL-C [2]: 40% | increase of HDL C [2]: 139% | half life [3]: 2-4 years | mineralocorticoid activity [4]: without mineralocorticoid activity

CC(C)c1c(C(=O)Nc2ccccc2)c(-c2ccccc2)c(-c2ccc(F)cc2)n1CC[C@@H](O)C[C@@H](O)CC(=O)O [Atorvastatin, atorvastatin]
HDL-C, percentage change at Week 12 compared to baseline [5, 11]: 1.27 | LDL-C, percentage change at Week 12 compared to baseline [5, 11]: −46.73 | Lp(a), percentage change at Week 12 compared to baseline [5, 11]: −4.46

CCOC(=O)N1c2ccc(C(F)(F)F)cc2[C@@H](N(Cc2cc(C(F)(F)F)cc(C(F)(F)F)c2)c2ncc(OCCCC(=O)O)cn2)C[C@H]1CC [Compound A, {4-[(2-{[3,5-bis(trifluoromethyl)benzyl][(2R,4S)-1-(ethoxycarbonyl)-2-ethyl-6-(trifluoromethyl)-1,2,3,4-tetrahydroquinolin-4-yl]amino}pyrimidin-5-yl)oxy]butanoic acid}]
HDL-C, percentage change at Week 12 compared to baseline ([5]; 1 mg of Compound A once daily): 76.04 | LDL-C, percentage change at Week 12 compared to baseline ([5]; 1 mg of Compound A once daily): −27.05 | Lp(a), percentage change at Week 12 compared to baseline ([5]; 1 mg of Compound A once daily): −28.81 | HDL-C, percentage change at Week 12 compared to baseline [5, 12]: 122.28 | LDL-C, percentage change at Week 12 compared to baseline [5, 12]: −34.38 | Lp(a), percentage change at Week 12 compared to baseline [5, 12]: −26.69 | HDL-C, percentage change at Week 12 compared to baseline ([5]; 5 mg of Compound A once daily): 160.90 | LDL-C, percentage change at Week 12 compared to baseline ([5]; 5 mg of Compound A once daily): −47.49 | Lp(a), percentage change at Week 12 compared to baseline ([5]; 5 mg of Compound A once daily): −37.33 | HDL-C, percentage change at Week 12 compared to baseline ([5]; 10 mg of Compound A once daily): 180.64 | LDL-C, percentage change at Week 12 compared to baseline ([5]; 10 mg of Compound A once daily): −47.26 | Lp(a), percentage change at Week 12 compared to baseline ([5]; 10 mg of Compound A once daily): −34.86 | increase in the ability of serum to promote cholesterol efflux ([6]; 1 mg of Compound A): 16.9% | increase in serum-mediated cholesterol efflux ([6]; 10 mg dose of Compound A): 36.7%

CCC(CC)CC1(C(=O)Nc2ccccc2SC(=O)C(C)C)CCCCC1 [Dalcetrapib, dalcetrapib]
effects on LDL-C concentrations [7]: minimal effects | increase of HDL-C [7]: 30-40%

Cc1cc(C)c2c(c1)[C@@H](N(Cc1cc(C(F)(F)F)cc(C(F)(F)F)c1)c1nnn(C)n1)CCCN2C[C@H]1CC[C@H](C(=O)O)CC1 [Evacetrapib, evacetrapib]
decrease of LDL-C [8]: 36% | increase of HDL-C [8]: 129% | mineralocorticoid activity [4]: without mineralocorticoid activity

CC(C)c1nc(N(C)S(C)(=O)=O)nc(-c2ccc(F)cc2)c1/C=C/[C@@H](O)C[C@@H](O)CC(=O)O [Rosuvastatin, rosuvastatin]
HDL-C, percentage change at Week 12 compared to baseline [5, 13]: 6.16 | LDL-C, percentage change at Week 12 compared to baseline [5, 13]: −47.36 | Lp(a), percentage change at Week 12 compared to baseline [5, 13]: −7.79

CCOC(=O)N1c2ccc(C(F)(F)F)cc2[C@@H](N(Cc2cc(C(F)(F)F)cc(C(F)(F)F)c2)C(=O)OC)C[C@H]1CC [Torcetrapib, torcetrapib]
expression of endothelin-1 [9]: increases expression of endothelin-1 | off-target effects ([10]; consistent with mineralocorticoid activity): increased blood pressure, changes in electrolytes (increases in sodium and bicarbonate and decreases in potassium) and increases in aldosterone | decrease of LDL-C ([10]; dosed at 60 mg): 25% | increase of HDL-C ([10]; dosed at 60 mg): 72% | safety concerns ([10]; in combination with the HMG CoA reductase inhibitor atorvastatin): unexpected increase in cardiovascular events and death
